The nature of one series: Caco-2 permeability. Type of series: in vitro ADME. As to conditions: human.
The subject of a further series is Caco-2. Briefly: Caco-2 permeability. In kind it is in vitro ADME. As to conditions: Caco-2, 5 μM. (In general: Passage across Caco-2 layers is used to estimate intestinal permeability.)
A short description of series [1]: Preclinical PK, oral and IV. As to conditions: dog, in vivo.
The subject of series [2] is receptors, enzymes, and ion channels. Briefly: Panel of diverse proteins (54 test targets). Type of series: binding. To be noted: 10 μM. As to the method:
RESULTS AND DISCUSSION—Selectivity—The compound of Formula (III) was evaluated in three selectivity panels to assess the potential for off-target pharmacology (Table 8). […] The kinase off-target profile of The compound of Formula (III) was assessed in a full human wild-type panel using radiometric kinase activity assays (KinaseProfiler™ and IC50Profiler™; Eurofins Scientific) (Table 9; FIG. 23). The compound of Formula (III) inhibited 4/278 kinases >50% at 1 micromolar, identifying BTK and the three other kinases having analogous Cys residues with the potential for covalent inhibition (BMX, TEC, BLK). […]. The cellular kinase selectivity of The compound of Formula (III) was established in native Ramos B cell kinome assays (KiNativ™; ActivX) confirmed BTK as the primary target with inhibition of BLK and TEC inhibition detected (Table 10).

Series [3] is described as follows: Plasma protein binding, equilibrium dialysis. In kind it is in vitro ADME, guinea pig. As to the method:
(§1) Additional Data on Preclinical PK Profile—Protein binding of the compound of Formula (III) was studied using an equilibrium dialysis method in plasma from human, cynomolgus monkey, beagle dog, Sprague Dawley rat, CD-1 mouse, and guinea pig at 0.25, 2.5, and 25 μM. […] In human and monkey, the plasma protein binding was concentration dependent. […] Free fraction of the compound of Formula (III) in liver microsomes from various species ranged from 75.1% to 87.9% at 0.25 mg/mL and from 58.9% to 86.5% at 1.0 mg/mL (Table 17). […] In hepatocytes, the compound of Formula (III) turnover followed a similar trend, with T1/2 ranging from 75.3 minutes in monkey to 278.1 minutes in human.
On the technique in general: In equilibrium dialysis free small molecules cross a membrane that holds back macromolecules.

The subject of a further series is PXR. Briefly: Puracyp DPX2 luciferase-reporter cell line (CYP3A4 induction). Type of series: in vitro ADME. On the procedure: To assess the potential of the compound of Formula (III) to be a time-dependent inhibitor of CYP3A, human liver microsomes were preincubated for 30 minutes at 37° C. with the compound of Formula (III) at concentrations up to 10 μM, and CYP3A activity was measured using testosterone as a probe substrate. […] The potential of the compound of Formula (III) to induce CYPs at the transcriptional level was assessed using Puracyp™ DPX2 (CYP3A4, PXR) and DRE (CYP1A2, AhR) luciferase-reporter cell lines; rifampicin and omeprazole were used as positive controls for CYP3A and CYP1A induction, respectively. The activation by the compound of Formula (III) was <20% of positive control values for PXR (6.6% and 14.1% at 1 and 10 μM change, respectively) or AhR (0.1% and 0.3% change, respectively). […] Potential involvement of various CYP isoforms in the metabolism of the compound of Formula (III) was investigated by measuring the parent compound remaining after 1-hour incubation with the compound of Formula (III) (1 μM) with recombinant CYPs (rCYPs) at 100 pmol P450/mL in the presence of 1 mM NADPH at 37° C. The only isozyme that produced notable the compound of Formula (III) turnover with <1% parent remaining after 1-hour incubation was CYP3A4 (FIG. 24). […]

Series [4] is described as follows: Metabolic stability in liver microsomes. In kind it is in vitro ADME, human. As to the method:
as §1
For orientation: Liver microsomes are vesicles of endoplasmic reticulum, rich in cytochrome P450 enzymes.

Series [5] in a line: Population PK model and simulations. Further details: species or system human.

SMILES strings stand for the structures.

Broadly, the Papp A→B is the apparent permeability from the apical to the basolateral side of a cell layer. The Papp B→A is the apparent permeability from the basolateral to the apical side of a cell layer. As usually defined, the Cmax is the peak of the concentration-time curve. Usually Tmax stands for the time from dosing to the highest level. By microsomal CLint is commonly meant the capacity of the preparation to metabolise the compound, expressed as a volume cleared per time. A lower microsomal CLint goes with greater metabolic stability. As to `C=CC(=O)N[C@H]1CCC[C@H]1NC(=O)c1sc2nccc3c2c1NC(=O)N3c1cnc(CC(C)C)cc1C` (atropisomer, axis not shown) [compound of Formula (III), N-((1R,2S)-2-Acrylamidocyclopentyl)-5-(S)-(6-isobutyl-4-methylpyridin-3-yl)-4-oxo-4,5-dihydro-3H-1-thia-3,5,8-triazaacenaphthylene-2-carboxamide], the efflux ratio at 5 μM in “Caco-2 permeability” (Caco-2, read-out: Efflux Ratio (BA/AB)) is 8.2. Further, the Papp A→B at 5 μM in the series “Caco-2 permeability” (Caco-2, 5 μM) was found to be 6.69 ×10⁻⁶ cm/s. Moreover, the Papp B→A at 5 μM in “Caco-2 permeability” (Caco-2, 5 μM) worked out at 54.9 ×10⁻⁶ cm/s. Also, the “Papp A to B” value in the series with Caco-2 is 6.69 10^−6 cm/s. The “Papp B to A” value in the series with Caco-2 is recorded as 54.9 10^−6 cm/s. In series [1] (iv), this compound yielded a clearance of 11 ± 3 mL/min/kg. In addition, the half-life in series [1] (iv, read-out: IV T1/2 (converted)) is 66 ± 6 min; in series [4] (human, liver microsomes, read-out: T1/2, liver microsomes), 22.3 min. Also, the Vd in series [1] (iv, read-out: Vss) is 0.8 ± 0.2 L/kg. The compound also showed a Cmax in series [1] (oral) of 890 ± 286 ng/mL. The Tmax in series [1] (oral) is 48 ± 18 min. Moreover, the AUC(0-inf) in series [1] (oral, read-out: Oral AUCinf) was determined as 1960 ± 421 ng·h/mL. In series [2], the “binding in off-target panel” value is recorded as “did not bind >50% at 10 μM for any of the 54 test targets”. The “% Free in plasma” value in series [3] (2.5 μM) is 3.23%; in series [3] (25 μM), 3.72%. Further, the fraction unbound at 0.25 μM in series [3] (guinea pig, plasma, 0.25 μM, read-out: % Free in plasma) was 0.0326. For the same compound, the “PXR activation, % of positive control (rifampicin)” value in the series with PXR (1 μM) is on record as 6.6%; in the series on PXR (10 μM), 14.1%. For the same compound, the “Extraction Ratio, liver microsomes” value in series [4] (Human) worked out at 0.63. In series [4] (human, liver microsomes), this compound gave a microsomal CLint of 31.1 µL/min/mg. Further, the “V2/F, popPK estimate” value in series [5] (model (A), first 5 SAD cohorts) is given as 43.0 L; in series [5] (model (B), all SAD and MAD data) it was 49.5 L.

The values above are taken from patent publication US12622910B2, “Inhibitors of Bruton's tyrosine kinase and methods of their use” (Janssen Pharmaceutica NV, priority 2021, dated 2026).
